According to patent US20090022803A1, “Oral Formulations For Delivery of Catecholic Butanes Including Ndga Compounds” (priority 2005, published 2009):
Where two headings read alike, the source gives them in different places.

Assay type: physicochemical
Description: A 10 mL solution of M4N at a concentration of about 10 mg/mL in 40% BP-β-CD was made as follows. About 10 mL of the 40% HP-β-CD solution were added to a glass beaker containing a stir bar. The beaker was placed on a magnetic plate and the stir bar was set to stir at medium speed. About […] of M4N were slowly added to the 40% HP-β-CD in the center of the beaker with the aid of a spatula. The M4N/40% HP-β-CD mixture was stirred for 2 hr or until all M4N was uniformly suspended without any clumps being present. The M4N/40% HP-β-CD mixture was optionally heated at 80° C. for about 30 min. (or longer if a larger volume of solution was desired, for example, 1 hr at 80° C. for 100 mL of the M4N/HP-β-CD mixture), or longer as needed to ensure complete dissolution of M4N. […] The final M4N/40% HP-β-CD solution was stored at room temperature and was kept protected from light. This process may be scaled up or down to obtain the requisite volume or concentration of M4N. Formulations containing M4N in other cyclodextrin solutions may be similarly made, such as, for example, by substituting HP-β-CD in the process described above with other cyclodextrins. […]
A 10 mL solution of M4N at a concentration of about 10 mg/mL in 50% HP-β-CD/0.5% HPMC was made as follows. About 10 mL of the 50% HP-β-CD/0.5% HPMC solution were added to a glass beaker containing a stir bar. The beaker was placed on a magnetic plate and the stir bar was set to stir at medium speed. About 100 mg of M4N were slowly added to the 50% HP-β-CD/0.5% HPMC in the center of the beaker with the aid of a spatula. The M4N/50% HP-β-CD/0.5% HPMC mixture was stirred for 24 hr or until all M4N was uniformly suspended without any clumps being present. The M4N/50% HP-β-CD/0.5% HPMC mixture was heated at about 90° C. for about 30 min. (or longer if a larger volume of solution was desired, for example, 1 hr at 90° C. for 500 mL of the M4N/50% HP-β-CD/0.5% HPMC mixture), or longer as needed to ensure complete dissolution of M4N. […] The final M4N/50% HP-β-CD/0.5% HPMC solution was stored at room temperature and was kept protected from light.
A 10 mL solution of M4N at a concentration of about 20 mg/mL in 5% EC (w/v) (the “EC formulation”) was made as follows. About 10 mL of 5% EC formulation, made as described above, were added to a glass beaker containing a stir bar. The beaker was placed on a magnetic plate and the stir bar was set to stir at medium speed, and covered with a round Teflon® cover. About 200 mg of M4N were slowly added to the 5% EC formulation in the center of the beaker with the aid of a spatula to prevent M4N from sticking to the beaker wall. The M4N/EC mixture was stirred for 2 hr or until all M4N had dissolved or was uniformly suspended without any clumps being present. The M4N/EC mixture was heated at about 60° C. for about 30 min. (or longer if a larger volume of solution was desired, for example, 1 hr at 60° C. for 500 mL of the M4N/EC mixture), or longer as needed to ensure complete dissolution of M4N. […] The final M4N/EC solution was stored at room temperature and was kept protected from light.
A 10 mL solution of M4N at a concentration of about 50 mg/mL in sesame oil was made as follows. About 10 mL of sesame oil were added to a glass beaker containing a stir bar. The beaker was placed on a magnetic plate and the stir bar was set to stir at medium speed. About 500 mg of M4N were slowly added to the sesame oil in the center of the beaker with the aid of a spatula to prevent M4N from sticking to the beaker wall. The M4N/sesame oil mixture was stirred for about 2 hr or until all M4N had dissolved or was uniformly suspended without any clump being present. The M4N/sesame oil mixture was heated at about 60° C. for about 30 min. (or longer if a larger volume of solution was desired, for example, 1 hr at 60° C. for 500 mL of the M4N/sesame oil mixture), or longer as need to ensure complete dissolution of M4N. […]

[1] = M4N 13.3 mg/mL in 27% HP-β-CD, 33% PEG 400 (v/v)
[2] = M4N 13.3 mg/mL in 27% HP-β-CD, 33% Tween ® 80 (v/v)
[3] = M4N 16.7 mg/mL in 13% HP-β-CD, 67% PEG 300 (v/v)
[4] = M4N 19.3 mg/mL in 10% HP-β-CD, 77% PEG 300 (v/v)
[5] = M4N 50 mg/mL in 50% HP-β-CD, 1.25% PVP (w/v)
Throughout, for Dissolution After Cool Down: key: N represents 'No'; Y represents 'Yes.'.

## COc1ccc(C[C@@H](C)[C@@H](C)Cc2ccc(OC)c(OC)c2)cc1OC [Formulation M4N, meso-1,4-bis(3,4-dimethoxyphenyl)-2,3-dimethylbutane]
[1]
  Dissolution After Cool Down: Y
  Dissolution After Rotation: N
M4N 13.3 mg/mL in 27% HP-β-CD, 33% PEG 400 (v/v), 60°
  Dissolution After Heating at X° C.: Y at 60°
[2]
  Dissolution After Cool Down: N
  Dissolution After Rotation: N
M4N 13.3 mg/mL in 27% HP-β-CD, 33% Tween ® 80 (v/v), 60°
  Dissolution After Heating at X° C.: Y at 60°
M4N 14 mg/mL in 40% HP-β-CD
  Dissolution After Rotation: N
M4N 14 mg/mL in 40% HP-β-CD, 80°
  Dissolution After Heating at X° C.: N at 80°
M4N 16 mg/mL in 40% HP-β-CD
  Dissolution After Rotation: N
M4N 16 mg/mL in 40% HP-β-CD, 80°
  Dissolution After Heating at X° C.: N at 80°
[3]
  Dissolution After Cool Down: N
  Dissolution After Rotation: N
M4N 16.7 mg/mL in 13% HP-β-CD, 67% PEG 300 (v/v), 60°
  Dissolution After Heating at X° C.: Y at 60°
[4]
  Dissolution After Cool Down: N
  Dissolution After Rotation: N
M4N 19.3 mg/mL in 10% HP-β-CD, 77% PEG 300 (v/v), 60°
  Dissolution After Heating at X° C.: Y at 60°
M4N 20 mg/mL in 5% EC in EtOH
  Dissolution After Cool-Down: Y
  Dissolution After Rotation: N
M4N 20 mg/mL in 30% HP-β-CD
  Dissolution After Rotation: N
M4N 20 mg/mL in 30% HP-β-CD, 90°
  Dissolution After Heating at X° C.: N at 90°
M4N 20 mg/mL in 40% HP-β-CD
  Dissolution After Rotation: N
M4N 20 mg/mL in 40% HP-β-CD, 80°
  Dissolution After Heating at X° C.: N at 80°
M4N 20 mg/mL in 50% HP-β-CD
  Dissolution After Rotation: N
M4N 20 mg/mL in 50% HP-β-CD, 0.5% CMC
  Dissolution After Rotation: Suspension
M4N 20 mg/mL in 50% HP-β-CD, 0.5% HPMC, other experiment, no heat
  Dissolution After Rotation: Suspension
M4N 20 mg/mL in 50% HP-β-CD, 90°
  Dissolution After Heating at X° C.: N at 90°
M4N 20 mg/mL in Corn Oil
  Dissolution After Cool-Down: Y
M4N 20 mg/mL in Sesame Oil
  Dissolution After Cool-Down: Y
M4N 24.3 mg/mL in 75% Sesame Oil, 9% Tween ® 20, 16% Glycerol
  Dissolution After Cool-Down: Y
M4N 29 mg/mL in 89% Sesame Oil, 11% Tween ® 20
  Dissolution After Cool-Down: Y
M4N 30 mg/mL in 5% EC in EtOH
  Dissolution After Cool-Down: N
  Dissolution After Rotation: N
M4N 30 mg/mL in Olive Oil
  Dissolution After Cool-Down: N
M4N 30 mg/mL in Sesame Oil
  Dissolution After Cool-Down: Y
M4N 30 mg/mL in Soybean Oil
  Dissolution After Cool-Down: N
M4N 40 mg/mL in 50% Peppermint Oil, 50% PEG 300
  Dissolution After Cool-Down: Y
M4N 40 mg/mL in 50% Peppermint Oil, 50% PEG 400
  Dissolution After Cool-Down: Y
M4N 40 mg/mL in 50% Peppermint Oil, 50% Sesame Oil
  Dissolution After Cool-Down: Y
M4N 40 mg/mL in 50% Peppermint Oil, 50% Tween ® 20
  Dissolution After Cool-Down: Y
M4N 40 mg/mL in 85% Sesame Oil, 15% Tween ® 20
  Dissolution After Cool-Down: N
M4N 40 mg/mL in Corn Oil
  Dissolution After Cool-Down: Y
M4N 40 mg/mL in Peppermint Oil
  Dissolution After Cool-Down: Y
M4N 50 mg/mL in 2.3% HPMC
  Dissolution After Rotation: N
M4N 50 mg/mL in 5% EC in EtOH
  Dissolution After Cool-Down: N
  Dissolution After Rotation: N
M4N 50 mg/mL in 15% α-CD
  Dissolution After Rotation: N
M4N 50 mg/mL in 15% α-CD, 90°
  Dissolution After Heating at X° C.: N at 90°
M4N 50 mg/mL in 20% HP-β-CD in saline
  Dissolution After Rotation: N
M4N 50 mg/mL in 30% HP-β-CD
  Dissolution After Rotation: N
M4N 50 mg/mL in 30% HP-β-CD, 90°
  Dissolution After Heating at X° C.: N at 90°
M4N 50 mg/mL in 40% HP-β-CD
  Dissolution After Rotation: N
M4N 50 mg/mL in 40% HP-β-CD, 80°
  Dissolution After Heating at X° C.: N at 80°
M4N 50 mg/mL in 50% HP-β-CD
  Dissolution After Rotation: N
M4N 50 mg/mL in 50% HP-β-CD, 0.5% HPMC
  Dissolution After Rotation: N
M4N 50 mg/mL in 50% HP-β-CD, 0.5% HPMC, other experiment, no heat
  Dissolution After Rotation: Suspension
[5]
  Dissolution After Heating at X° C.: N
  Dissolution After Rotation: N
M4N 50 mg/mL in 50% HP-β-CD, 90°
  Dissolution After Heating at X° C.: N at 90°
M4N 50 mg/mL in Camillia Oil
  Dissolution After Cool-Down: N
